From patent US9499547B2 (BAYER INTELLECTUAL PROPERTY GMBH, priority 2011, dated 2016)

Key:
[1] = molecular target: T1, human full-length MKNK1 (Homo sapiens (Human), UniProt Q9BUB5, T344D); assay: MKNK1 kinase high ATP assay (TR-FRET-based); format: biochemical; settings: 2 mM ATP final conc.; 15 min preincubation with enzyme
Protocol: MKNK1 Kinase High ATP Assay
MKNK1-inhibitory activity at high ATP of compounds of the present invention after their preincubation with MKNK1 was quantified employing the TR-FRET-based MKNK1 high ATP assay as described in the following paragraphs.
As substrate for the kinase reaction the biotinylated peptide biotin-Ahx-[…] (C-terminus in amide form) was used, which can be purchased e.g. from the company Biosyntan (Berlin-Buch, Germany).
(§1) For the assay 50 nL of a 100 fold concentrated solution of the test compound in DMSO was pipetted into a black low volume 384 well microtiter plate (Greiner Bio-One, Frickenhausen, Germany), 2 μL of a solution of MKNK1 in aqueous assay buffer [50 mM HEPES pH 7.5, 5 mM magnesium chloride, 1.0 mM dithiothreitol, 0.005% (v/v) Nonidet-P40 (Sigma)] was added and the mixture was incubated for 15 min at 22° C. to allow pre-binding of the test compounds to the enzyme before the start of the kinase reaction. Then the kinase reaction was started by the addition of 3 μL of a solution of adenosine-tri-phosphate (ATP, 3.3 mM=>final conc. in the 5 μL assay volume is 2 mM) and substrate (0.1 μM=>final conc. in the 5 μL assay volume is 0.06 μM) in assay buffer and the resulting mixture was incubated for a reaction time of 30 min at 22° C. The concentration of MKNK1 was adjusted depending of the activity of the enzyme lot and was chosen appropriate to have the assay in the linear range, typical concentrations were in the range of 0.003 μg/mL. The reaction was stopped by the addition of 5 μL of a solution of TR-FRET detection reagents (5 nM streptavidine-XL665 [Cisbio Bioassays, Codolet, France] and 1 nM anti-ribosomal protein S6 (pSer236)-antibody from Invitrogen [#44921G] and 1 nM LANCE EU-W1024 labeled ProteinG [Perkin-Elmer, product no. AD0071]) in an aqueous EDTA-solution (100 mM EDTA, 0.1% (w/v) bovine serum albumin in 50 mM HEPES pH 7.5).
(§2) The resulting mixture was incubated for 1 h at 22° C. to allow the formation of complex between the phosphorylated biotinylated peptide and the detection reagents. Subsequently the amount of phosphorylated substrate was evaluated by measurement of the resonance energy transfer from the Eu-chelate to the streptavidine-XL. Therefore, the fluorescence emissions at 620 nm and 665 nm after excitation at 350 nm were measured in a TR-FRET reader, e.g. a Rubystar (BMG Labtechnologies, Offenburg, Germany) or a Viewlux (Perkin-Elmer). The ratio of the emissions at 665 nm and at […] was taken as the measure for the amount of phosphorylated substrate. The data were normalised (enzyme reaction without inhibitor=0% inhibition, all other assay components but no enzyme=100% inhibition).

[2] = molecular target: T1, human full-length MKNK1; assay: MKNK1 kinase assay (MKNK1 TR-FRET assay); format: biochemical; settings: 10 μM ATP final conc.; 15 min preincubation with enzyme
Protocol: MKNK1-inhibitory activity of compounds of the present invention was quantified employing the MKNK1 TR-FRET assay as described in the following paragraphs.
As substrate for the kinase reaction the biotinylated peptide biotin-Ahx-[…] (C-terminus in amide form) was used which can be purchased e.g. form the company Biosyntan (Berlin-Buch, Germany).
as §1, with “16.7 μM=>final” for “3.3 mM=>final”, “10 μM)” for “2 mM)”, “45” for “30”, “0.05 μg/ml.” for “0.003 μg/mL.”
as §2

T1 sequence (Q9BUB5 other isoform, or with tags, fused parts or gaps T344D): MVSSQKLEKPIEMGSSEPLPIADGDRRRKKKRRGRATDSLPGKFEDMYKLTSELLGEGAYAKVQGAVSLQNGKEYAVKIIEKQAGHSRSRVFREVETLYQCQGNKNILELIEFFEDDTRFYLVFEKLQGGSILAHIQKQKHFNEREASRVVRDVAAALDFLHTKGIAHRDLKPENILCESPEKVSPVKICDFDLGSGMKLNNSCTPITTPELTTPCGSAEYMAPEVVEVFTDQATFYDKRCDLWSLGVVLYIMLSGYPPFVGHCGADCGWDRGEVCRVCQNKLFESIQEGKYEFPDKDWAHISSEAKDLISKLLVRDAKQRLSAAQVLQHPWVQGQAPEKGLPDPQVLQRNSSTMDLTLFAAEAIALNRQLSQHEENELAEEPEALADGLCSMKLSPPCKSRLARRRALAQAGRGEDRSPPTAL

| Compound | IC50 [1] [nM] | IC50 [2] [nM] |
| --- | --- | --- |
| COc1cccc2oc(-c3cnc4ccc(OCCCCN)nn34)cc12 [Example 1, 4-{[3-(4-Methoxy-1-benzofuran-2-yl)imidazo[1,2-b]pyridazin-6-yl]oxy}butan-1-amine] | 5 | 3 |
| N[C@H]1C[C@H](Oc2ccc3ncc(-c4cc5ccccc5o4)n3n2)C1 [Example 2, trans-3-{[3-(1-Benzofuran-2-yl)imidazo[1,2-b]pyridazin-6-yl]oxy}cyclobutanamine] | 6 | 5 |
| N[C@H]1C[C@@H](Oc2ccc3ncc(-c4cc5ccccc5o4)n3n2)C1 [Example 3, cis-3-{[3-(1-Benzofuran-2-yl)imidazo[1,2-b]pyridazin-6-yl]oxy}cyclobutanamine] | 17 | 4 |
| COc1cccc2oc(-c3cnc4ccc(OCCCN)nn34)cc12 [Example 4, 3-{[3-(4-Methoxy-1-benzofuran-2-yl)imidazo[1,2-b]pyridazin-6-yl]oxy}propan-1-amine] | 15 | 5 |
| COc1cccc2oc(-c3cnc4ccc(OCCN)nn34)cc12 [Example 5, 2-{[3-(4-Methoxy-1-benzofuran-2-yl)imidazo[1,2-b]pyridazin-6-yl]oxy}ethanamine] | 18 | 6 |
| COc1ccc2oc(-c3cnc4ccc(OCCN)nn34)cc2c1 [Example 6, 2-{[3-(5-Methoxy-1-benzofuran-2-yl)imidazo[1,2-b]pyridazin-6-yl]oxy}ethanamine] | 13 | 6 |
| C[C@H](N)COc1ccc2ncc(-c3cc4ccccc4o3)n2n1 [Example 7, (2S)-1-{[3-(1-Benzofuran-2-yl)imidazo[1,2-b]pyridazin-6-yl]oxy}propan-2-amine] | 18 | 7 |
| NCCCCOc1ccc2ncc(-c3cc4ccccc4o3)n2n1 [Example 8, 4-{[3-(1-Benzofuran-2-yl)imidazo[1,2-b]pyridazin-6-yl]oxy}butan-1-amine] | 17 | 7 |
| COc1ccc2oc(-c3cnc4ccc(OCCCN)nn34)cc2c1 [Example 9, 3-{[3-(5-Methoxy-1-benzofuran-2-yl)imidazo[1,2-b]pyridazin-6-yl]oxy}propan-1-amine] | 22 | 7 |
| NCCCOc1ccc2ncc(-c3cc4ccccc4o3)n2n1 [Example 11, 3-{[3-(1-Benzofuran-2-yl)imidazo[1,2-b]pyridazin-6-yl]oxy}propan-1-amine] | 24 | 8 |
| NCCOCCOc1ccc2ncc(-c3cc4ccccc4o3)n2n1 [Example 21, 2-(2-{[3-(1-Benzofuran-2-yl)imidazo[1,2-b]pyridazin-6-yl]oxy}ethoxy)ethanamine] | 14 | – |
| N[C@@H]1CCCC[C@H]1Oc1ccc2ncc(-c3cc4ccccc4o3)n2n1 [Example 23, (1R,2R)-2-{[3-(1-Benzofuran-2-yl)imidazo[1,2-b]pyridazin-6-yl]oxy}cyclohexanamine] | 18 | – |
| NC1(COc2ccc3ncc(-c4cc5ccccc5o4)n3n2)CCC1 [Example 27, 1-({[3-(1-Benzofuran-2-yl)imidazo[1,2-b]pyridazin-6-yl]oxy}methyl)cyclobutanamine] | 29 | – |
| C=CCCC(CN)Oc1ccc2ncc(-c3cc4ccccc4o3)n2n1 (centres unmarked) [Example 28, 2-{[3-(1-Benzofuran-2-yl)imidazo[1,2-b]pyridazin-6-yl]oxy}hex-5-en-1-amine] | 45 | – |
| NCC(CN1CCOCC1)Oc1ccc2ncc(-c3cc4ccccc4o3)n2n1 (centres unmarked) [Example 31, 2-{[3-(1-Benzofuran-2-yl)imidazo[1,2-b]pyridazin-6-yl]oxy}-3-(morpholin-4-yl)-propan-1-amine] | 78 | – |
| NC(COc1ccc2ncc(-c3cc4ccccc4o3)n2n1)C1CCOCC1 (centres unmarked) [Example 32, 2-{[3-(1-Benzofuran-2-yl)imidazo[1,2-b]pyridazin-6-yl]oxy}-1-(tetrahydro-2H-pyran-4-yl)ethanamine] | 79 | – |
| NCC(Cc1ccc(F)cc1)Oc1ccc2ncc(-c3cc4ccccc4o3)n2n1 (centres unmarked) [Example 53, 2-{[3-(1-Benzofuran-2-yl)imidazo[1,2-b]pyridazin-6-yl]oxy}-3-(4-fluorophenyl)-propan-1-amine] | 46 | – |
| NCC(Cc1ccncc1)Oc1ccc2ncc(-c3cc4ccccc4o3)n2n1 (centres unmarked) [Example 54, 2-{[3-(1-Benzofuran-2-yl)imidazo[1,2-b]pyridazin-6-yl]oxy}-3-(pyridin-4-yl)-propan-1-amine] | 19 | – |
| NC[C@H](Oc1ccc2ncc(-c3cc4ccccc4o3)n2n1)c1cccnc1 [Example 55, (2R)-2-{[3-(1-benzofuran-2-yl)imidazo[1,2-b]pyridazin-6-yl]oxy}-2-(pyridin-3-yl)ethanamine] | – | 16 |
| NCC(Oc1ccc2ncc(-c3cc4ccccc4o3)n2n1)c1ccc(F)cc1 (centres unmarked) [Example 56, 2-{[3-(1-benzofuran-2-yl)-imidazo-[1,2-b]-pyridazin-6-yl]oxy}-2-(4-fluoro-phenyl)-ethanamine] | – | 40 |
| NCC(Oc1ccc2ncc(-c3cc4ccccc4o3)n2n1)c1ccccn1 (centres unmarked) [Example 57, 2-{[3-(1-benzofuran-2-yl)-imidazo-[1,2-b]-pyridazin-6-yl]oxy}-2-(pyridin-2-yl)-ethanamine] | – | 94 |
| CC(C)Oc1cccc(C(CN)Oc2ccc3ncc(-c4cc5ccccc5o4)n3n2)c1 (centres unmarked) [Example 58, 2-{[3-(1-benzofuran-2-yl)-imidazo-[1,2-b]-pyridazin-6-yl]oxy}-2-(3-iso-propoxy-phenyl)-ethanamine] | – | 20 |
| NCC(Oc1ccc2ncc(-c3cc4ccccc4o3)n2n1)c1cccc(C(F)(F)F)c1 (centres unmarked) [Example 59, 2-{[3-(1-benzofuran-2-yl)-imidazo-[1,2-b]-pyridazin-6-yl]oxy}-2-[3-(tri-fluoro-methyl)-phenyl]-ethanamine] | – | 37 |
| NCC(Oc1ccc2ncc(-c3cc4ccccc4o3)n2n1)c1ccc(F)cc1F (centres unmarked) [Example 60, 2-{[3-(1-benzofuran-2-yl)-imidazo-[1,2-b]-pyridazin-6-yl]oxy}-2-(2,4-di-fluoro-phenyl)-ethanamine] | – | 39 |
| N[C@H](COc1ccc2ncc(-c3cc4ccccc4o3)n2n1)c1ccc(F)cc1 [Example 61, (1S)-2-{[3-(1-benzofuran-2-yl)imidazo[1,2-b]pyridazin-6-yl]oxy}-1-(4-fluorophenyl)ethanamine] | – | 29 |
| N[C@H](COc1ccc2ncc(-c3cc4ccccc4o3)n2n1)c1ccc(Cl)cc1 [Example 62, (1S)-2-{[3-(1-benzofuran-2-yl)imidazo[1,2-b]pyridazin-6-yl]oxy}-1-(4-chlorophenyl)ethanamine] | – | 31 |
| NC(COc1ccc2ncc(-c3cc4ccccc4o3)n2n1)c1cccnc1 (centres unmarked) [Example 63, 2-{[3-(1-benzofuran-2-yl)imidazo[1,2-b]pyridazin-6-yl]oxy}-1-(pyridin-3-yl)ethanamine] | – | 54 |
| NCCC(Oc1ccc2ncc(-c3cc4ccccc4o3)n2n1)c1ccc(F)cc1 (centres unmarked) [Example 64] | – | 57 |
